System: enzymes in the soil
Assay: Ammonia volatilization test (fertilizer applied to the surface of moist soil, ammonia captured in sulfuric acid and titrated)
Conditions: cumulative, percent of total starting nitrogen
Text: Nitrogen lost, as ammonia, after soil application occurs over a long time period. The present volatilization test was designed to simulate and quantify processes in the soil. The volatilization test apparatus and procedure utilized to evaluate the test product samples described in above Table 1 is summarized as follows.
Procedure for Measurement of Ammonia
The test was designed to determine the volatility of a fertilizer product when applied to the surface of the soil. The baseline, standard that used was one gram of urea. Each sample was placed in a sample flask which contained a pre-weighed amount of soil and water. The same source of soil was used in all testing. Humidified air was then passed over the sample to carry any ammonia which had volatilized by the enzymes in the soil, to a receiving flask. The receiving flask contained sulfuric acid which captured the ammonia. The receiving flask was then titrated to determine the amount of ammonia volatilized from each sample.
Mixed Methyl Red—Methylene Blue Indicator (150 mL): • Dissolve 0.2 g of methyl red in 100 mL of ethyl alcohol (70-95%). Dissolve 0.1 g methylene blue in 50 mL of ethyl alcohol (70-95%). Mix together. • Indicator was good for 30 days. Testing Apparatus: Manifold: • a. A manifold was constructed of ½ inch cpvc (chlorinated polyvinyl chloride). • b. The manifold has 22 ports with a needle valve for air flow adjustment. • c. The tubing from the manifold to the sample flask was connected to a 1/16 inch hose barb on the needle valve.
2. Air Supply: • a. The air was supplied by an air compressor with a regulator to control the pressure to the manifold. • b. The air goes through a rotameter with a control knob to adjust the flow to the manifold (A minimum of 70 volumes of the head space is in each sample flask during each sampling interval, often much higher. Head space refers to the air volume above the soil.). • c. The air from the rotameter goes through a bubbler containing 25% sulfuric acid solution. After the sulfuric acid bubbler is a knock out chamber to prevent any sulfuric acid mist from going further. • d. The air then goes to a water bubbler to hydrate the air before going through another knock out chamber before entering the manifold.
3. Sample Flask • a. The sample flask is a 250 mL Erlenmeyer flask. The tubing from the manifold is connected to the flask by a barb fitting in a rubber stopper. • b. Each sample flask contained 48 grams of soil (dried and sieved through a 12 mesh screen), 12 grams of water, and the equivalent of one gram of urea. The materials were added to the flasks in the order list to ensure that the sample was added to moist soil (20-25%).
4. Receiving Flask • a. The receiving flask is a 125 mL Erlenmeyer flask. Tubing from the stopper on the sample flask is connected to a glass sparger passing through a stopper to the receiving flask. • b. Each receiving flask contains 50 mL of 0.5N Sulfuric Acid. • c. The tip of the glass sparger is below the level of the acid to allow the air to bubble through the acid and capture any ammonia present. • d. The receiving flask is removed and replaced with flask containing fresh solution at the intervals of 3, 7 and 10 days.
5. Measurement of Ammonia • a. The contents of each receiving flask removed at the intervals of 3, 7 and 10 days were tested for ammonia according to the above described Procedure for Measurement of Ammonia. The first ten days are most critical and are sufficient to determine reliable comparative results. • b. […] Ammonia Volatilization Test Results for Products in Table 2

Row | % Ammonia Released (Table 2 series, Day 0) [%] | % Ammonia Released (Table 2 series, Day 3) [%] | % Ammonia Released (Table 2 series, Day 7) [%] | % Ammonia Released (Table 2 series, Day 10) [%] | % Ammonia Released (Table 3 series, Day 0) [%] | % Ammonia Released (Table 3 series, Day 3) [%] | % Ammonia Released (Table 3 series, Day 7) [%] | % Ammonia Released (Table 3 series, Day 10) [%] | % Ammonia Released (Table 5 series, Day 0) [%] | % Ammonia Released (Table 5 series, Day 3) [%] | % Ammonia Released (Table 5 series, Day 7) [%] | % Ammonia Released (Table 5 series, Day 10) [%] | SMILES | % Ammonia Released (Table 4 series, Day 0) [%] | % Ammonia Released (Table 4 series, Day 3) [%] | % Ammonia Released (Table 4 series, Day 7) [%] | % Ammonia Released (Table 4 series, Day 10) [%]
1 |  |  |  |  |  |  |  |  |  |  |  |  | N.O=P(O)(O)O [MAP, monoammonium phosphate] | 0 | 0.74 | 1.61 | 2.09
2 | 0 | 0.23 | 72.29 | 82.37 | 0 | 1.09 | 38.83 | 81.33 | 0 | 0.05 | 40.35 | 65.11 | NC(N)=O [Urea] | 0 | 27.41 | 88.77 | 90.81

— patent US8758474B2, “Urea fertilizer containing central volatilization inhibitor particles to reduce release of ammonia and processes for making same” (NFT Industries, LLC, priority 2010, dated 2014)
